For one assay, the system named is HEK293. Nature of the assay: inhibitors of LMP1-driven NF-kB reporter, dose response, cell-based, HEK293, luciferase, cherry-pick (AID 588343). It is filed as functional. To be noted: Homo sapiens.
Assay [1] in a line: NIH-3T3 fibroblast cytotoxicity, dose response, cytotoxicity control, cell-based, fluorescence, Alamar Blue, secondary assay (AID 2327).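 Note: NIH-3T3 mouse fibroblasts cultured with fluconazole at 8 µg/mL.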 It is filed as functional.
For assay [2], the target named is T1, Sentrin-specific protease 8 (Homo sapiens, UniProt Q96LD8).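 Note: luminescence read-out of SENP8 inhibition, dose-response confirmation following an ultra-high-throughput screen.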
T1 sequence (Q96LD8 whole entry): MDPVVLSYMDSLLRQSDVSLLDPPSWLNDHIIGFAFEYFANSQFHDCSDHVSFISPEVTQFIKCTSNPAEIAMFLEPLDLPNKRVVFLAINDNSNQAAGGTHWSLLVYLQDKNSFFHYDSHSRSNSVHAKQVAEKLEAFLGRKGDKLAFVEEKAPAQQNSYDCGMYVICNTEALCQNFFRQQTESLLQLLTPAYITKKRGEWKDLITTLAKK
It counts as functional.

A further assay has as its target T2, Caspase-3 (Homo sapiens, UniProt P42574).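 Note: Dose-response selectivity test against caspase-3 for candidate inhibitors of sentrin-specific proteases (SENPs).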
T2 sequence (P42574 whole entry): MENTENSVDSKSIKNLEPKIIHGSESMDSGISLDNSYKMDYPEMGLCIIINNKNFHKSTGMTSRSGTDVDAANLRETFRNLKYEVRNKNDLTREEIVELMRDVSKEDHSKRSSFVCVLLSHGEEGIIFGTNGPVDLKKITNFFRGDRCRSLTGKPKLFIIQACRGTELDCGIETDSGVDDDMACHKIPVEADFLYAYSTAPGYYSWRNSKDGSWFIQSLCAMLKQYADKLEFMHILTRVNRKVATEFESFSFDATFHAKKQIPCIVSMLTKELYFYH
It counts as functional.

For assay [3], the target named is T3, Sentrin-specific protease 6 (Homo sapiens, UniProt Q9GZR1).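 Note: Luminescence-based dose-response confirmatory assay of SENP6 inhibition, following up an ultra-high-throughput screen.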
T3 sequence (Q9GZR1 whole entry): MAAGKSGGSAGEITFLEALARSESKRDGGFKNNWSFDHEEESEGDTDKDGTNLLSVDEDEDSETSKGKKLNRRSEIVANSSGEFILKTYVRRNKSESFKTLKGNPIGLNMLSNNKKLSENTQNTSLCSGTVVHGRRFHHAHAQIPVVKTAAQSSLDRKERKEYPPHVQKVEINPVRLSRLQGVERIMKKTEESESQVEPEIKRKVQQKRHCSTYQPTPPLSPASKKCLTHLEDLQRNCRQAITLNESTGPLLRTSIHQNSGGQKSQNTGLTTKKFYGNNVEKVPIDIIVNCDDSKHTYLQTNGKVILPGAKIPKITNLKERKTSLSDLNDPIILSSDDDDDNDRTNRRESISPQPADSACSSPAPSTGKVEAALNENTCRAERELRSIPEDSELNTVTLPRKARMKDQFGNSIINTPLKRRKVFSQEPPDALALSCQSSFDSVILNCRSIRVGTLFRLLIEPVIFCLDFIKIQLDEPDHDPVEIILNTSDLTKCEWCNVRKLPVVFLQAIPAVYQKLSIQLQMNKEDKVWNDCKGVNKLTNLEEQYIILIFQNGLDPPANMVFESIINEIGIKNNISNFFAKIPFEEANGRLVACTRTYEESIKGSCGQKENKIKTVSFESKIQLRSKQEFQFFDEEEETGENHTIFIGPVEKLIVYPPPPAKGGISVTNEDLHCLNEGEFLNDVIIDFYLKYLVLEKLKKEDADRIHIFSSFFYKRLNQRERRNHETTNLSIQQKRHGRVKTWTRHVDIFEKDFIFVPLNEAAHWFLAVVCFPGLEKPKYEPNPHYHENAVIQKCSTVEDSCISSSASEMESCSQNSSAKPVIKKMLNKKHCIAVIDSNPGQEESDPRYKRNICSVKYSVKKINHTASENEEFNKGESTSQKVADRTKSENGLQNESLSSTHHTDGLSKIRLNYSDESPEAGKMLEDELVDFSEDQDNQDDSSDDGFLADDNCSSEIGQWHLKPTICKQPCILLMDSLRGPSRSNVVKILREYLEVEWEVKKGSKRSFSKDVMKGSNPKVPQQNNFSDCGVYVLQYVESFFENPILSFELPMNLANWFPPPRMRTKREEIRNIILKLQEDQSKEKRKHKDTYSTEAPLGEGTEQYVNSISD
It is filed as functional.

Assay [4] in a line: C. albicans growth with fluconazole, confirmation, fluorescence, retest (AID 2467). It is filed as functional, cell-based.
For assay [5], the target named is T4, Sentrin-specific protease 7 (Homo sapiens, UniProt Q9BQF6).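 Note: Luminescence-based dose-response confirmation of ultra-high-throughput screening hits, measuring inhibition of SENP7.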
T4 sequence (Q9BQF6 whole entry): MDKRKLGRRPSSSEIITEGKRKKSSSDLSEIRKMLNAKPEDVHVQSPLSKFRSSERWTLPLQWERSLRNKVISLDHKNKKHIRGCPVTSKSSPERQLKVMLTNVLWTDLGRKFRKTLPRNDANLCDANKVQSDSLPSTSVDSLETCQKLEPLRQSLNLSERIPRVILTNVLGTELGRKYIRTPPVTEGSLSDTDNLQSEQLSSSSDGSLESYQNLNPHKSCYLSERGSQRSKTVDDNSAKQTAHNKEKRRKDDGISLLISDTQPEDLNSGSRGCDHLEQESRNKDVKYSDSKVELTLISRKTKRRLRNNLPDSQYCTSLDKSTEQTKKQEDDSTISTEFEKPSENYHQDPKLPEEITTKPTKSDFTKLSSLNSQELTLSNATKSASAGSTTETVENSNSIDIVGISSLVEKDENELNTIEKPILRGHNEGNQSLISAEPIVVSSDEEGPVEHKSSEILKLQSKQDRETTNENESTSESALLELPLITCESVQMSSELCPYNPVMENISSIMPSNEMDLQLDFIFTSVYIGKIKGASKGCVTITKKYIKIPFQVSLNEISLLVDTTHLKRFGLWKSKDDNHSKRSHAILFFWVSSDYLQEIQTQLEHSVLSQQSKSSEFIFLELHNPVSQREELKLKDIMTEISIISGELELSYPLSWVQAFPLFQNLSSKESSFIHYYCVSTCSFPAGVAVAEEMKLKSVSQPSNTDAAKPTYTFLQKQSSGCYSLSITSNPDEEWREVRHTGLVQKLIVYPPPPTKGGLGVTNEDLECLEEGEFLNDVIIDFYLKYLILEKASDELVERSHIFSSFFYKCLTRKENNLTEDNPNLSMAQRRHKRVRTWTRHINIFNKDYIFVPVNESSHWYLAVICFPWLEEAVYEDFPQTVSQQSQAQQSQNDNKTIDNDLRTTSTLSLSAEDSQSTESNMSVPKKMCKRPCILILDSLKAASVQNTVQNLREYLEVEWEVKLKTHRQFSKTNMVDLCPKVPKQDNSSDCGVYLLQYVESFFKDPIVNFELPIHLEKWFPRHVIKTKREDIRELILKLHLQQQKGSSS
It counts as functional.

The subject of another assay is Vero. Nature of the assay: Vero cell cytotoxicity, cytotoxicity control for flavivirus capping enzyme inhibitors (AID 588742). It is filed as functional. To be noted: Chlorocebus sabaeus.
Assay [6] addresses Dual specificity tyrosine-phosphorylation-regulated kinase 1A (Rattus norvegicus, UniProt Q63470). It is filed as biochemical, Homo sapiens.
In assay [7] the target is T5, Zinc finger protein mex-5 (Caenorhabditis elegans, UniProt Q9XUB2).
T5 sequence (Q9XUB2 whole entry): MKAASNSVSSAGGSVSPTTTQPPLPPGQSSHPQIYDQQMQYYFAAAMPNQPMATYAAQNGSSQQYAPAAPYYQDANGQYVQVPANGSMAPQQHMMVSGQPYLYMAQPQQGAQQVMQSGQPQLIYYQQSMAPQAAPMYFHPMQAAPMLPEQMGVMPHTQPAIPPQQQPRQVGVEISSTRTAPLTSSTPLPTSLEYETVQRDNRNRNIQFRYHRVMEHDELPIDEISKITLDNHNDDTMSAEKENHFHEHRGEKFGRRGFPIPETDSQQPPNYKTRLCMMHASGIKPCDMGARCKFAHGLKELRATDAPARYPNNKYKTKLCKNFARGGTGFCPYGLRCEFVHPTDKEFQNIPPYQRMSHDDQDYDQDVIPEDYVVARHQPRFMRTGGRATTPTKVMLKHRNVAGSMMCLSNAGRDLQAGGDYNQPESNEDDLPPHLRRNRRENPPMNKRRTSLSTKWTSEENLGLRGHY
Briefly: MEX-5/TCR-2 RNA interaction inhibitors, dose response, biochemical, C. elegans, fluorescence polarization (AID 1960). A general note: In fluorescence polarisation assays a small probe gives low polarisation when free and higher when bound to something large.

Another assay deals with T6, Leucine aminopeptidase (Plasmodium falciparum 3D7, UniProt Q8IL11).
T6 sequence (Q8IL11 whole entry): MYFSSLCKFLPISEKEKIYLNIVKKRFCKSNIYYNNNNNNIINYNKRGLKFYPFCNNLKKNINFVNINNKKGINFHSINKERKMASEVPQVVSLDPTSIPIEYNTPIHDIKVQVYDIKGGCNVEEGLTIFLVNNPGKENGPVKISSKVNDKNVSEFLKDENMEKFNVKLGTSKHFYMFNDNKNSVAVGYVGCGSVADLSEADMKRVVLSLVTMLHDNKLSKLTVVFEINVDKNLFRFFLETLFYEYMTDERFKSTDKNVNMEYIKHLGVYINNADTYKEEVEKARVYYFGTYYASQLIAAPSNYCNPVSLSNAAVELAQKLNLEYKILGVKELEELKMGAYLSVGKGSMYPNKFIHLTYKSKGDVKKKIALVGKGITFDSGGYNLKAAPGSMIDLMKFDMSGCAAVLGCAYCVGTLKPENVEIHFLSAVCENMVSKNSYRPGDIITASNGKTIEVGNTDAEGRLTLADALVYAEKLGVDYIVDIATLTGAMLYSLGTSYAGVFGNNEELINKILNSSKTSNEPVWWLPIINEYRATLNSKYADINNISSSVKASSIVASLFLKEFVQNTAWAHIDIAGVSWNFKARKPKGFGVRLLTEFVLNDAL
Nature of the assay: P. falciparum M17LAP inhibitors, primary screen, biochemical, fluorogenic H-Leu-NHMec substrate, 1536-well (AID 1619). It is filed as functional.

Assay [8] has as its target T7, RNA-binding protein pos-1 (Caenorhabditis elegans, UniProt G5EF15).
T7 sequence (G5EF15 whole entry): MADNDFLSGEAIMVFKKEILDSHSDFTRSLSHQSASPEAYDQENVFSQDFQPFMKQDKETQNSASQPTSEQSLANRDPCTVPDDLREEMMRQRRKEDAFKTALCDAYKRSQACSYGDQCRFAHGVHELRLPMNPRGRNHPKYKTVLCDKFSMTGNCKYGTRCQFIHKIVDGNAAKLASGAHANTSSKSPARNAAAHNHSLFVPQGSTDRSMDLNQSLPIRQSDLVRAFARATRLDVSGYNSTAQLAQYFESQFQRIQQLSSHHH
Briefly: inhibitors of POS-1/mex-3 RNA binding, dose response, biochemical, fluorescence polarization (AID 1964).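 Note: purified POS-1 fused to maltose binding protein made in E. coli; potency of compounds blocking POS-1 binding to fluorescent RNA.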

In another assay the test system is Escherichia coli. Briefly: microbe, parasite or virus in culture.
Assay [9] deals with T8, Apoptotic protease-activating factor 1 (Homo sapiens, UniProt O14727).
T8 sequence (O14727 whole entry): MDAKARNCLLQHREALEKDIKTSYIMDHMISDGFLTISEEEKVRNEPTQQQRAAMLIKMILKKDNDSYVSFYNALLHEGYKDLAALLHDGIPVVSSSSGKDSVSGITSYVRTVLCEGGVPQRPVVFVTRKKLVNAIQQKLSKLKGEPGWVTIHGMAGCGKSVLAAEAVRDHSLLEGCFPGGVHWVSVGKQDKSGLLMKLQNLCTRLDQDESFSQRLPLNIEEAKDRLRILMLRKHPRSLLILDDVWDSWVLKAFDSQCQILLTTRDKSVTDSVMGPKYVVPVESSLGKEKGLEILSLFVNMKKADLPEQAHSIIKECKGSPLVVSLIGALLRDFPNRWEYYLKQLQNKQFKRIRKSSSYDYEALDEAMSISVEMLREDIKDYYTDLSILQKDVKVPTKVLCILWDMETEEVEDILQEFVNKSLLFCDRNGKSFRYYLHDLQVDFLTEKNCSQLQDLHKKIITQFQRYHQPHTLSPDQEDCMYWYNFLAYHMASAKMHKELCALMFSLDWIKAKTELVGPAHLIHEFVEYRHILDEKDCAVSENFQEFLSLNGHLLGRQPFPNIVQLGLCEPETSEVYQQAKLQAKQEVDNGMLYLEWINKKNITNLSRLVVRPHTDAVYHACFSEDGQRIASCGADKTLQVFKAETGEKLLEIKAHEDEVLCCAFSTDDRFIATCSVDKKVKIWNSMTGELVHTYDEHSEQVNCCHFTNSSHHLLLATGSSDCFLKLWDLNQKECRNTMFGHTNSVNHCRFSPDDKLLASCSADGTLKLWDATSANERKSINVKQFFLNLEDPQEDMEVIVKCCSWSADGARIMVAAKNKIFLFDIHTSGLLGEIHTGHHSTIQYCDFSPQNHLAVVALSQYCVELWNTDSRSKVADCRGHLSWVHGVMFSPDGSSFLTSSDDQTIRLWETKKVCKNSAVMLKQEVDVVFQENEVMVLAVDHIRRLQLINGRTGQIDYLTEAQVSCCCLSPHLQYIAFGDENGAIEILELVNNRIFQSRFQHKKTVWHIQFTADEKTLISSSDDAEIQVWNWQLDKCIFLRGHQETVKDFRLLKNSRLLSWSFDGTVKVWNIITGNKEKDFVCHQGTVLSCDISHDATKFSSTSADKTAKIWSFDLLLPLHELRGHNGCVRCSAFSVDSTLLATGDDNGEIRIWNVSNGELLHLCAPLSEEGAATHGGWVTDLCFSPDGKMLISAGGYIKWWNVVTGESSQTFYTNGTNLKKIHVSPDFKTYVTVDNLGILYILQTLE
It counts as functional.

Calls of active or inactive are those of the source.

Turning to `CCCCCc1ccc(-c2ccc(/C=C/C(=O)O)cc2)nc1`, the AC50 with HEK293 is 20.8 µM (active). Also, the half-maximal effective concentration (EC50) in assay [1] was > 160 µM (inconclusive); in [4], 2.03 µM (active). Besides, the half-inhibitory concentration (IC50) was 8.8 µM (active) in assay [2], 35.4 µM (active) at Caspase-3, 11.2 µM (active) in assay [3] and 6.37 µM (active) in [5].
Turning to `COc1cc(/C=C2\SC(=O)NC2=O)ccc1Oc1ccc([N+](=O)[O-])cc1[N+](=O)[O-]`, the CC50 with Vero was > 40 µM (active). Moreover, the AC50 in [6] was 7.72 µM (active).
On to `COc1ccc(Nc2ncnc3nc[nH]c23)cc1OC`, for which the EC50 in assay [7] was 23.9 µM (active); in assay [8] it was > 300 µM (not active). Further, the AC50 in assay [6] was 12 µM (active). In addition, at Leucine aminopeptidase, the IC50 was 48.5 µM (active).
`CCn1c2ccccc2c2cc(/C=N/n3c(C)nnc3C)ccc21`: in the assay with HEK293, the AC50 was 34.2 µM (active).
Turning to `Clc1ccccc1-c1nn2c(-c3ccncc3)nnc2s1`, the AC50 in the assay with Escherichia coli is 23.3 µM (active). The IC50 in assay [9] is 19.1 µM (active).
As to `O=C(O)/C=C/c1ccc2ccccc2n1`, the AC50 with HEK293 is 47.7 µM (active).

The term AC50 denotes the concentration at which the activity in the assay is half-maximal. In general, EC50 refers to the concentration that produces a half-maximal response. What is called IC50 is the concentration at which inhibition is half-maximal. By CC50 is commonly meant the concentration that lowers cell viability or growth by half.

Source of the values: ChEMBL document CHEMBL1201862, “PubChem BioAssay data set” (2004).
